Like-named read-outs stand apart in the source and are kept apart here.
Columns and labels:
[1] = Storage and handling stability of the halonium reagents; assay type: physicochemical
[2] = Solubility of the halonium reagents in organic solvents; assay type: physicochemical
[3] = test system: reverse transcriptases of the Human Immunodeficiency Virus; conditions: published indications, refs 7c, 7d, cited from earlier work

Q: Which “stable for” value ([1]; ambient temperature, enclosed vial) does the source give for CC[S+](Br)CC [BDSB, bromodiethylsulfonium bromopentachloroantimonate] here?
A: at least 1 week

Q: And the “stable for” value ([1]; −20° C.)?
A: a year or more

Q: What about the solubility ([2]; acetone, methanol, ethanol, THF, reacts with these solvents) of the same compound?
A: soluble

Q: What about the solubility ([2]; ambient temperature, CH2Cl2, 1,2-dichloroethane, chloroform, toluene) of the same compound?
A: moderately to slightly soluble

Q: And the solubility ([2]; ambient temperature, MeNO2, EtNO2, MeCN, DMSO, DMF, EtOAc)?
A: fully soluble

Q: And the solubility ([2]; ambient temperature, benzene, hexanes, pentane)?
A: insoluble

Q: And the solubility ([2]; several organic solvents)?
A: good solubility

Q: With CC[S+](Cl)CC [CDSC, Chlorodiethylsulfonium hexachloroantimonate] as the compound, how does the “stable for” value ([1]; −20° C.) read?
A: at least several months

Q: For CC1=CC[C@H]2C(C)(C)[C@@H](Br)CC[C@]2(C)[C@@H]1Cc1cc(O)c(CC(=O)O)cc1O [peyssonoic acid A], which “inhibitor of the reverse transcriptases of the Human Immunodeficiency Virus” value (shortened to “inhibitor”) [3] is on record?
A: possessed such activity

Q: Which “inhibitor” value [3] does the source give for C=C1CC[C@H]2C(C)(C)[C@@H](Br)CC[C@]2(C)[C@@H]1Cc1cc(O)c(C=O)cc1O [peyssonol A] here?
A: allosteric inhibitor of the reverse transcriptases

Q: And the “inhibitor” value ([3]; listed as peysonnol A)?
A: possessed such activity

— US20140243404A1, “UNIQUE HALOGEN-INDUCED CYCLIZATIONS, REAGENTS THEREFOR, AND COMPOUNDS PRODUCED THEREBY” (The Trustees of Columbia University in the City of New York, priority 2010, published 2014)
